SMILES strings stand for the structures.

As usually defined, the Ki is a measure of affinity in units of concentration, obtained from inhibition or displacement. Low values mean higher affinity, high ones lower affinity.

The test concerns the target T1, Human Polθ polymerase domain (aa1820-2590) (Homo sapiens, UniProt O75417).
T1 construct: Human Polθ polymerase domain (aa1820-2590) was expressed in E. Coli; made in house; host or cells: E. coli
T1 sequence (O75417 1820-2590): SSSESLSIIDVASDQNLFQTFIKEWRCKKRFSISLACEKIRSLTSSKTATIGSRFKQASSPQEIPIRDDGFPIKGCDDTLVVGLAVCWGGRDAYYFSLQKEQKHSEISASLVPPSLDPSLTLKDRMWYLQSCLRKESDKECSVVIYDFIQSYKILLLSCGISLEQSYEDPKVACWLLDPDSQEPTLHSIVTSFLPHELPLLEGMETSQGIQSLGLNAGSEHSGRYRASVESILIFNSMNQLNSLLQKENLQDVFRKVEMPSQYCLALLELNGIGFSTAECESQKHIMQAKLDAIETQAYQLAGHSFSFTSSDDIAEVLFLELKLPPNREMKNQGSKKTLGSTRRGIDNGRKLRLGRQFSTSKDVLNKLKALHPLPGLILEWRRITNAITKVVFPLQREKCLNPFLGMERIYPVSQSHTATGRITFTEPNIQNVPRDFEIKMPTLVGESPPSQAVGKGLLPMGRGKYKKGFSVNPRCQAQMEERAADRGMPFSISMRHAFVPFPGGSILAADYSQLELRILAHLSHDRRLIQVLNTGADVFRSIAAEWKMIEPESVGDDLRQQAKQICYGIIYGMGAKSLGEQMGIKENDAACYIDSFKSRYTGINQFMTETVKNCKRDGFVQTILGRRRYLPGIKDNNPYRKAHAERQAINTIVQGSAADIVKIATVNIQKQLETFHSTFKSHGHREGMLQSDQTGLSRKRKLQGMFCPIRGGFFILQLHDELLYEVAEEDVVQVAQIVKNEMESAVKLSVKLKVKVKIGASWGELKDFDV
In words: Polθ Polymerase Domain WT KI Assay (PicoGreen). It is filed as biochemical. The following applies: 100 nM DNA substrate, 0.156 nM Polθ, initial rates vs inhibitor concentration. A digest of the protocol: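 E. coli-expressed human Polθ polymerase domain (aa1820-2590) on annealed DNA II Short/Long primer-template (1.2:1), in 25 mM Tris pH 7.5, NaCl, 5% glycerol, 0.01% Triton X-100, 0.1 mg/ml BSA, 1 mM DTT, 1% DMSO. EDTA-quenched timepoints to 180 min, PicoGreen fluorescence. Initial rates vs inhibitor concentration fitted four-parameter for KI.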
As to `Cc1cc(C(F)(F)F)cc(N2C(=O)C[C@@H]3CN(c4ccccn4)c4c(Cl)cccc4N(C)C(=O)[C@H]32)n1` [Example 145, (3aR,11aS)-6-Chloro-10-methyl-1-(6-methyl-4-(trifluoromethyl)pyridin-2-yl)-5-(pyridin-2-yl)-1,3a,4,5,10,11a-hexahydro-2H-benzo[b]pyrrolo[2,3-f][1,4]diazocine-2,11(3H)-dione], the Ki was determined as 30.5 nM. Compound `CCN1C(=O)[C@@H]2[C@H](CC(=O)N2c2cc(C(F)(F)F)cc(C)n2)CN(CCN2CCN(C)CC2)c2c(Cl)cccc21` [Example 146, (3aR,11aS)-6-Chloro-10-ethyl-1-(6-methyl-4-(trifluoromethyl)pyridin-2-yl)-5-(2-(4-methylpiperazin-1-yl)ethyl)-1,3a,4,5,10,11a-hexahydro-2H-benzo[b]pyrrolo[2,3-f][1,4]diazocine-2,11(3H)-dione] displayed a Ki of 7.01 nM. The result for `Cc1cc(C(F)(F)F)cc(N2C(=O)C[C@@H]3CN(CCN4CCOCC4)c4c(C)cccc4NC(=O)[C@H]32)n1` [Example 147, (3aR,11aS)-6-Methyl-1-(6-methyl-4-(trifluoromethyl)pyridin-2-yl)-5-(2-morpholinoethyl)-1,3a,4,5,10,11a-hexahydro-2H-benzo[b]pyrrolo[2,3-f][1,4]diazocine-2,11(3H)-dione] reads 3.62 nM. For `Cc1cc(C(F)(F)F)cc(N2C(=O)C[C@@H]3CN(CCN4CCNCC4)c4c(C)cccc4NC(=O)[C@H]32)n1` [Example 148, (3aR,11aS)-6-Methyl-1-(6-methyl-4-(trifluoromethyl)pyridin-2-yl)-5-(2-(piperazin-1-yl)ethyl)-1,3a,4,5,10,11a-hexahydro-2H-benzo[b]pyrrolo[2,3-f][1,4]diazocine-2,11(3H)-dione], the affinity, expressed as Ki, was 3.04 nM. The result for `Cc1cc(C(F)(F)F)cc(N2C(=O)C[C@@H]3CN(CCN4CCN(C)CC4)c4c(C)cccc4NC(=O)[C@H]32)n1` [Example 149, (3aR,11aS)-6-Methyl-1-(6-methyl-4-(trifluoromethyl)pyridin-2-yl)-5-(2-(4-methylpiperazin-1-yl)ethyl)-1,3a,4,5,10,11a-hexahydro-2H-benzo[b]pyrrolo[2,3-f][1,4]diazocine-2,11(3H)-dione] reads 3.25 nM.

Values taken from patent publication US20260124214A1, “HETEROCYCLIC COMPOUNDS FOR USE IN THE TREATMENT OF CANCER” (ARTIOS PHARMA LIMITED, priority 2021, published 2026).
